The text below walks through data of article PMC6600273, “Design, Synthesis and Anti-Platelet Aggregation Activity Study of Ginkgolide-1,2,3-triazole Derivatives” (Molecules, 2019).

The assay deals with PAF-induced platelet aggregation. The assay is described as follows: In vitro antiplatelet aggregation activity assay (method of Born), PAF-induced platelet aggregation in platelet-rich plasma. The assay is classed as cell-based, New Zealand rabbits. As to conditions: for IC50: rabbit PRP, aggregation induced by PAF (10 nM); for antiplatelet aggregation activity, inhibition ratio in primary screening (result in words): inhibition ratio at 50 nM, Figures 3 and 4. On the procedure: The in vitro antiplatelet aggregation activity of the newly synthesized 10-substituted 1,2,3-triazole-ginkgolide derivatives was tested by the method of Born. Blood samples (2 mL) from male New Zealand rabbits (2–2.5 kg body weight) were drawn into vacutainer tubes containing 200 μL of 3.2% sodium citrate. Platelet-rich plasma (PRP) was prepared by centrifuging the blood at 250× g for 10 min at 4 °C. The PRP was diluted with platelet-poor plasma obtained by further centrifuging at 3000× g for 10 min. The remaining blood was further centrifuged at 1600× g for 5 min to obtain platelet-poor plasma (PPP) as control group. Platelet aggregation was induced by PAF (10 nM) after incubating platelets with different concentrations of samples, and the maximum rate of platelet aggregation (RPA%) within 5 min was measured with a Helena Platelet aggregometer instrument. The inhibition ratio was calculated according to the following formula:Inhibition ratio (%) = (1−(RPA% of test group) / (RPA% of control group)) × 100%
In primary screening, the activities were expressed directly as inhibition ratio at 50 nM concentration. […] The values shown in the tables were calculated by linear regression from a single experimental curve with no less than four data points, each point being the mean of the percentage inhibition at a given concentration obtained from three independent experiments.

Where [1] appears, read: Oryctolagus cuniculus, Platelet.

Usually IC50 stands for the point on the concentration scale where inhibition reaches its midpoint. Low readings indicate inhibition by little substance, high ones a need for much substance. For ginkgolide C [1″, reference compound], half-maximal inhibition (IC50) was put at 7540 ± 662 nM.

Turning to `C[C@@H]1C(=O)O[C@H]2C[C@@]34[C@H]5C[C@@H](C(C)(C)C)[C@]36[C@@H](OC(=O)[C@@H]6O)O[C@@]4(C(=O)O5)[C@]21O` [1′, ginkgolide A, reference compound], the IC50 under setting [1] amounted to 580 ± 50.3 nM.

For `Cc1ccccc1-n1cc(COC2C(=O)OC3OC45C(=O)OC6CC(C(C)(C)C)C32C64C(O)C2OC(=O)C(C)C25O)nn1` (stereo not shown) [Compound 5n, 10-O-(1-(2-Methylphenyl)-1H-1,2,3-triazole) ginkgolide B], the “antiplatelet aggregation activity, inhibition ratio in primary screening (result in words)” value is reported as “best results”. The compound further returned an IC50 under setting [1] of 20.6 ± 2.84 nM.

Turning to `CC1C(=O)OC2C(O)C34C5CC(C(C)(C)C)C36C(OC(=O)C6OCc3cn(-c6ccccc6)nn3)OC4(C(=O)O5)C12O` (stereo not shown) [Compound 5a, 10-O-(1-Phenyl-1H-1,2,3-triazole) ginkgolide B], the “antiplatelet aggregation activity, inhibition ratio in primary screening (result in words)” value is recorded as “best results”. The same compound yielded an IC50 under setting [1] of 7.74 ± 1.89 nM.

`Cc1cccc(-n2cc(COC3C(=O)OC4OC56C(=O)OC7CC(C(C)(C)C)C43C75C(O)C3OC(=O)C(C)C36O)nn2)c1` (stereo not shown) [Compound 5q, 10-O-(1-(3-Methylphenyl)-1H-1,2,3-triazole) ginkgolide B] returned an IC50 under setting [1] of 44.3 ± 4.42 nM.

In the case of “ginkgolide B [Compound 1, reference compound]”, the IC50 is 130 ± 20 nM.

On to `CC1C(=O)OC2C(O)C34C5CC(C(C)(C)C)C36C(OC(=O)C6OCc3cn(Cc6ccccc6)nn3)OC4(C(=O)O5)C12O` (stereo not shown) [Compound 5ff, 10-O-(1-Benzyl-1H-1,2,3-triazole) ginkgolide B], for which the “antiplatelet aggregation activity, inhibition ratio in primary screening (result in words)” value was “best results”. Also, under setting [1], inhibition was half-maximal at 5.31 ± 1.84 nM (IC50). Also, for the setting “ratio of IC50 values vs ginkgolide B”, the “fold increase in antiplatelet aggregation activity in comparison with natural ginkgolide B (1)” value is given as roughly 20 fold.

Regarding `CC1C(=O)OC2C(O)C34C5CC(C(C)(C)C)C36C(OC(=O)C6OCc3cn(-c6ccccc6C#N)nn3)OC4(C(=O)O5)C12O` (stereo not shown) [Compound 5p, 10-O-(1-(2-Cyanophenyl)-1H-1,2,3-triazole) ginkgolide B], the “antiplatelet aggregation activity, inhibition ratio in primary screening (result in words)” value is given as “best results”. Besides, the IC50 under setting [1] is 10.2 ± 2.03 nM.
